The values below come from patent US7132437B2, “Renal-selective biphenylalkyl 1H-substituted-1,2,4-triazole angiotensin II antagonists for treatment of hypertension” (G.D. Searle, priority 1990, dated 2006).

In data set [1] the test system is rabbit aortic rings. Put plainly: Assay B: In Vitro Vascular Smooth Muscle Response for AII. Conditions: antagonist at 10^-5 M, two values per cell = aorta rings from two rabbits; for Kb: Oryctolagus cuniculus, read-out: Assay B pA2 (converted). Type of data set: cell-based. Here is the method: Assay B: In Vitro Vascular Smooth Muscle-Response for ATT
Compounds of Formula I were tested for antagonist activity in rabbit aortic rings. Male New Zealand white rabbits (2–2.5 kg) were sacrificed using an overdose of pentobarbital and exsanguinated via the carotid arteries. The thoracic aorta was removed, cleaned of adherent fat and connective tissue and then cut into 3-mm ring segments. The endothelium was removed from the rings by gently sliding a rolled-up piece of filter paper into the vessel lumen. The rings were then mounted in a water-jacketed tissue bath, maintained at 37° C., between moveable and fixed ends of a stainless steel wire with the moveable end attached to an FT03 Grass transducer coupled to a Model 7D Grass Polygraph for recording isometric force responses. The bath was filled with 20 ml of oxygenated (95% oxygen/5% carbon dioxide) Krebs solution of the following composition […]: 130 NaCl, 15 NaHCO3, 15 KCl, 1.2 NaH2PO4, 1.2 MgSO4, 2.5 CaCl2, and 11.4 glucose. The preparations were equilibrated for one hour before approximately one gram of passive tension was placed on the rings. Angiotensin II concentration-response curves were then recorded (3×10^−10 to 1×10–5 M). Each concentration of AII was allowed to elicit its maximal contraction, and then AII was washed out repeatedly for 30 minutes before rechallenging with a higher concentration of AII. Aorta rings were exposed to the test antagonist at 10^−5 M for 5 minutes before challenging with AII. Adjacent segments of the same aorta ring were used for all concentration-response curves in the presence or absence of the test antagonist. The effectiveness of the test compound was expressed in terms of pA2 values and were calculated according to H. O. Schild [Br. J. Pharmacol. Chemother., 2, 189–206 (1947)]. […] Each test antagonist was evaluated in aorta rings from two rabbits.

The subject of data set [2] is AII pressor response. The experiment in a line: Assay C: In Vivo Intraduodenal Pressor Assay Response for AII Antagonists. Also on record: species or system Sprague-Dawley rats. Here is the method: Assay C: In Vivo Intraduodenal Pressor Assay Response for AII Antagonists
Male Sprague-Dawley rats weighing 225–300-grams were anesthetized with Inactin (100 mg/kg, i.p.) and catheters were implanted into the trachea, femoral artery, femoral vein and duodenum. Arterial pressure was recorded from the femoral artery catheter on a Gould chart recorder (Gould, Cleveland, Ohio). The femoral vein catheter was used for injections of angiotensin II, mecamylamine and atropine. The tracheal catheter allow for airway patency, and the duodenal catheter was used for intraduodenal (i.d.) administration of test compounds. After surgery, the rats were allowed to equilibrate for 30 minutes. Mecamylamine (3 mg/kg, 0.3 ml/kg) and atropine (400 ug/kg, 0.3 ml/kg) were then given i.v. to produce ganglion blockade. These compounds were administered every 90 minutes throughout the test procedure. Angiotensin II was given in bolus does i.v. (30 ng/kg in saline with 0.5% bovine serum albumin, 0.1 ml/kg) every 10 minutes three times or until the increase in arterial pressure produced was within 3 mmHg for two consecutive AII injections. The last two AII injections were averaged and were taken as the control AII pressor response. […] Angiotensin II injections were then given 5, 10, 20, 30, 45, 60, 75, 90, and 120 minutes after administration of the test compound and response of arterial pressure was monitored. The response to AII was calculated as percent of the control response and then the percent inhibition is calculated as 100 minus the percent control response. Duration of action of a test compound was defined as the time from peak percent inhibition to 50% of peak. One compound at one dose was tested in each rat. Each test compound was tested in two rats and the values for the two rats were averaged.

Data set [3] deals with T1, smooth muscle angiotensin II receptor.
T1 construct: Rat uterine membranes were prepared from fresh tissue
Put plainly: Assay A: Angiotensin II Binding Activity. Conditions: rat uterine membrane preparation, displacement of 125I-AII. How it is done:
Assay A: Angiotensin II Binding Activity
Compounds of Formula I were tested for ability to bind to the smooth muscle angiotensin II receptor using a rat uterine membrane preparation. […] Other chemicals were obtained from Sigma Chemical Co. This assay was carried out according to the method of Douglas et al [Endocrinology, 106, 120–124 (1980)]. Rat uterine membranes were prepared from fresh tissue. All procedures were carried out at 4° C. Uteri were stripped of fat and homogenized in phosphate-buffered saline at pH 7.4 containing 5 mM EDTA. The homogenate was centrifuged at 1500×g for 20 min., and the supernatant was recentrifuged at 100,000×g for 60 min. The pellet was resuspended in buffer consisting of 2 mM EDTA and 50 mM Tris-HCl (pH 7.5) to a final protein concentration of 4 mg/ml. […] The reaction was initiated by the addition of membrane protein and the mixture was incubated at 25° C. for 60 min. The incubation was terminated with ice-cold 50 mM Tris-HCl (pH 7.5) and the mixture was filtered to separate membrane-bound labelled peptide from the free ligand. The incubation tube and filter were washed with ice-cold buffer. Filters were assayed for radioactivity in a Micromedic gamma counter. Nonspecific binding was defined as binding in the presence of 10 μM of unlabelled AII. Specific binding was calculated as total binding minus nonspecific binding. […] Binding data were analyzed by a nonlinear least-squares curve fitting program.
For orientation: In a radioligand displacement assay an active substance lowers the binding of a labelled ligand.

The mark [4] stands for this setting: Rattus norvegicus, intraduodenal, 30 mg/kg intraduodenally.
Setting [5] is: Rattus norvegicus, intraduodenal, 100 mg/kg intraduodenally.

The structures appear in SMILES notation. Bounds are passed on as bounds.

With `CCCCc1nc(Cl)nn1Cc1ccc(-c2ccccc2C(=O)O)cc1` (single isomer, unassigned) [Example 6, 4′-[(5-butyl-3-chloro-1H-1,2,4-triazol-1-yl)methyl][1,1′-biphenyl]-2-carboxylic acid], the “Assay B pA2” value in data set [1] is listed as 6.82. In addition, in data set [2] (100 mg/kg intraduodenally), the “Assay C Duration” value came out at 120 min.
As usually defined, the melting point is the temperature of the solid-liquid transition. What is called IC50 is the midpoint of a concentration-inhibition curve. In the case of `CCCCc1nc(-c2ccccc2)nn1Cc1ccc(-c2ccccc2-c2nnn[nH]2)cc1` (single isomer, unassigned) [Example 21, 5-[4′-[(3-phenyl-5-butyl-1H-1,2,4-triazol-1-yl)methyl](1,1′-biphenyl)-2-yl]-1H-tetrazole], the melting point is 113 °C (dec.). The compound further gave a 50% inhibitory concentration (IC50) in data set [3] of 87 nM.
For `CCCCc1nc(C(OC)OC)n(Cc2ccc(-c3ccccc3-c3nnn[nH]3)cc2)n1` (single isomer, unassigned) [Example 23, 5-[4′-[[3-butyl-5-(dimethoxymethyl)-1H-1,2,4-triazol-1-yl]methyl][1,1′-biphenyl]-2-yl]-1H-tetrazole], the melting point was in the range of 152.5 to 153.5 °C. Also, the IC50 in data set [3] stood at 430 nM.
Taken in the same sequence, the figures for `CCCCCCCCc1nc(CCCC)nn1Cc1ccc(-c2ccccc2-c2nnn[nH]2)cc1` (single isomer, unassigned) [Example 28, 5-[4′-[(3-butyl-5-octyl-1H-1,2,4-triazol-1-yl)methyl][1,1′-biphenyl]-2-yl]-1H-tetrazole] were 136.5 to 138 °C and 570 nM.
Taken in the same sequence, the figures for `CCCCc1nc(C)nn1Cc1ccc(-c2ccccc2-c2nnn[nH]2)cc1` (single isomer, unassigned) [Example 32, 5-[4′-[(5-butyl-3-methyl-1H-1,2,4-triazol-1-yl)methyl][1,1′-biphenyl]-2-yl]-1H-tetrazole] were 170 to 170.5 °C and 16 nM.
In data set [3], `CCCCc1nc(C(F)F)nn1Cc1ccc(-c2ccccc2-c2nnn[nH]2)cc1` (single isomer, unassigned) [Example 47, 5-[4′-[[5-butyl-3-(difluoromethyl)-1H-1,2,4-triazol-1-yl]methyl][1,1′-biphenyl]-2-yl]-1H-tetrazole] gave an IC50 of 21 nM. Also, the “Assay B pA2” value in data set [1] was determined as 7.58.
Usually inhibition stands for the change of the read-out against control, counted positive when it falls. A higher inhibition goes with strong suppression. Consider `CCCCc1nc(CN)nn1Cc1ccc(-c2ccccc2-c2nnn[nH]2)cc1` [Example 3, 5-[4′-[(3-aminomethyl-5-butyl-1H-1,2,4-triazol-1-yl)methyl][1,1′-biphenyl]-2-yl]-1H-tetrazole], for which the IC50 in data set [3] was 5.4 nM. Moreover, the Kb in data set [1] is 2 nM. Further, the “Assay C Duration” value in data set [2] (10 mg/kg intragastrically) was more than 180 min; in data set [2] (30 mg/kg intragastrically), 200^+ min. This compound displayed an inhibition at 10 mg/kg in data set [2] (Rattus norvegicus, po, 10 mg/kg intragastrically) of 50%. Besides, at 30 mg/kg the inhibition in data set [2] (Rattus norvegicus, po, 30 mg/kg intragastrically) was 100%.
For the compound `CCCCc1nc(CCCN)nn1Cc1ccc(-c2ccccc2-c2nnn[nH]2)cc1` [Example 5, 5-[4′-[[3-(3-aminopropyl)-5-butyl-1H-1,2,4-triazol-1-yl]methyl][1,1′-biphenyl]-2-yl]-1H-tetrazole], in data set [3], the IC50 was 200 nM. Further, the “Assay C Duration” value in data set [2] (30 mg/kg intraduodenally) was in the range of 20 to 30 min. For the same compound, in data set [2] (setting [4]), the inhibition at 30 mg/kg was 38%.
In the case of `CCCCc1nc(CC(=O)O)nn1Cc1ccc(-c2ccccc2-c2nnn[nH]2)cc1` [Example 7, 5-[4′-[(5-butyl-3-carboxymethyl-1H-1,2,4-triazol-1-yl)methyl][1,1′-biphenyl]-2-yl]-1H-tetrazole], the IC50 in data set [3] is 84 nM. In data set [1], the Kb is 9.77 nM. The “Assay C Duration” value in data set [2] (30 mg/kg intraduodenally) came to 130 min. Moreover, the inhibition at 30 mg/kg in data set [2] (setting [4]) was determined as 90%.
The compound `CCCCc1nc(CCC(=O)O)nn1Cc1ccc(-c2ccccc2-c2nnn[nH]2)cc1` [Example 9, 5-[4′-[[5-butyl-3-(2-carboxyethyl)-1H-1,2,4-triazol-1-yl]methyl][1,1′-biphenyl]-2-yl]-1H-tetrazole] yielded an IC50 in data set [3] of 700 nM. In addition, the results for the “Assay C Duration” value in data set [2] (30 mg/kg intraduodenally) and in data set [2] (100 mg/kg intraduodenally) were 75 min and 130 min, respectively. In data set [2] (setting [4]), this compound had an inhibition at 30 mg/kg of 80%. Besides, in data set [2] (setting [5]), 100 mg/kg produced 100% inhibition.
Take `CCCCc1nc(C(F)(F)CCC)nn1Cc1ccc(-c2ccccc2C(=O)O)cc1` [Example 10]: the “Assay C Duration” value in data set [2] (3 mg/kg intraduodenally, time from peak percent inhibition to 50% of peak) worked out at 100 min; in data set [2] (30 mg/kg intraduodenally) it was 240 min. In data set [2] (Rattus norvegicus, intraduodenal), this compound yielded an inhibition at 3 mg/kg of 86%. The same compound came in with an inhibition at 30 mg/kg in data set [2] (setting [4]) of 100%.
Consider `CCCc1nc(CN)nn1Cc1ccc(-c2ccccc2-c2nnn[nH]2)cc1` [Example 12, 5-[4′-[(3-aminomethyl-5-propyl-1H-1,2,4-triazol-1-yl)methyl][1,1′-biphenyl]-2-yl]-1H-tetrazole], for which the IC50 in data set [3] was 6 nM. In data set [1], the Kb was 2.19 nM.
Taken in the same sequence, the figures for `CCCCc1nc(CCC)n(Cc2ccc(-c3ccccc3C(=O)O)cc2)n1` [Example 15, 4′-[(3-butyl-5-propyl-1H-1,2,4-triazol-1-yl)methyl]-[1,1′-biphenyl]-2-carboxylic acid] were 16 nM and 4.9 nM.
Taken in the same sequence, the figures for `CCCCc1nc(CCC(C)C)nn1Cc1ccc(-c2ccccc2C(=O)O)cc1` [Example 17, 4′-[(5-butyl-3-isopentyl-1H-1,2,4-triazol-1-yl]methyl)-[1,1′-biphenyl]-2-carboxylic acid] were 4 nM and 2.29 nM.
Turning to `O=C(O)c1ccccc1-c1ccc(Cn2nc(C(F)(F)C(F)(F)C(F)(F)F)nc2C(F)(F)C(F)(F)C(F)(F)F)cc1` [Example 20, 4′-[(3,5-di-perfluoropropyl-1H-1,2,4-triazol-1-yl)methyl][1,1′-biphenyl]-2-carboxylic acid], the Kb in data set [1] was 1290 nM. Besides, the “Assay C Duration” value in data set [2] (100 mg/kg intraduodenally) amounted to 45 min. The same compound returned an inhibition at 100 mg/kg in data set [2] (setting [5]) of 10%.
For `CCCCc1nc(C(=O)CCC)nn1Cc1ccc(-c2ccccc2-c2nnn[nH]2)cc1` [Example 30], the melting point was 150.5 to 152.5 °C.
On the same count and under the same terms, the figure for `CCCCc1nc(C2CCCCC2)n(Cc2ccc(-c3ccccc3-c3nnn[nH]3)cc2)n1` [Example 65, 5-[4′-[(3-butyl-5-cyclohexyl-1H-1,2,4-triazol-1-yl)methyl][1,1′-biphenyl]-2-yl]-1H-tetrazole] is 157.5 to 159.5 °C; for `CCCCc1nc(C2CCCCC2)nn1Cc1ccc(-c2ccccc2-c2nnn[nH]2)cc1` [Example 66, 5-[4′-[(5-butyl-3-cyclohexyl-1H-1,2,4-triazol-1-yl)methyl][1,1′-biphenyl]-2-yl]-1H-tetrazole] it is 125 to 127 °C.
